Tests used:
Assay in all cases: relative viability (nuclei count vs DMSO), 5 days (fraction); higher = more cells survive
Erlotinib + Navitoclax = compound: C#Cc1cccc(Nc2ncnc3cc(OCCOC)c(OCCOC)cc23)c1 [Erlotinib] + CC1(C)CCC(c2ccc(Cl)cc2)=C(CN2CCN(c3ccc(C(=O)NS(=O)(=O)c4ccc(N[C@H](CCN5CCOCC5)CSc5ccccc5)c(S(=O)(=O)C(F)(F)F)c4)cc3)CC2)C1 [Navitoclax] (partner 0.5 µM)
Outline: (§1)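 Dosing by pin tool came one day after lung cancer cell lines were seeded in 1536-well plates, using either one drug or a fixed anchor-drug dose plus five library-drug doses (not always all listed) in √10 steps. After 5 days, nuclei were counted on 4× images. Relative viability is treated-well nuclei count divided by vehicle-well nuclei count, and values are medians of duplicate plates.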

Erlotinib + Lapatinib = compound: C#Cc1cccc(Nc2ncnc3cc(OCCOC)c(OCCOC)cc23)c1 [Erlotinib] + CS(=O)(=O)CCNCc1ccc(-c2ccc3ncnc(Nc4ccc(OCc5cccc(F)c5)c(Cl)c4)c3c2)o1 [Lapatinib] (partner 2 µM)
Outline: as §1

Erlotinib + Pictilisib = compound: C#Cc1cccc(Nc2ncnc3cc(OCCOC)c(OCCOC)cc23)c1 [Erlotinib] + CS(=O)(=O)N1CCN(Cc2cc3nc(-c4cccc5[nH]ncc45)nc(N4CCOCC4)c3s2)CC1 [Pictilisib] (partner 1 µM)
Outline: as §1

AT9283 + OSI-027 = compound: O=C(Nc1c[nH]nc1-c1nc2ccc(CN3CCOCC3)cc2[nH]1)NC1CC1 [AT9283] + COc1cccc2cc(-c3nc([C@H]4CC[C@H](C(=O)O)CC4)n4ncnc(N)c34)[nH]c12 [OSI-027] (partner 0.5 µM)
Outline: as §1

AT9283 + Vorinostat = compound: O=C(Nc1c[nH]nc1-c1nc2ccc(CN3CCOCC3)cc2[nH]1)NC1CC1 [AT9283] + O=C(CCCCCCC(=O)Nc1ccccc1)NO [Vorinostat] (partner 1 µM)
Outline: as §1

| Cell Line | relative viability (Erlotinib + Navitoclax; first compound 0.02 µM) | relative viability (Erlotinib + Navitoclax; first compound 0.2 µM) | relative viability (Erlotinib + Navitoclax; first compound 0.6325 µM) | relative viability (Erlotinib + Navitoclax; first compound 2 µM) | relative viability (Erlotinib + Lapatinib; first compound 0.02 µM) | relative viability (Erlotinib + Lapatinib; first compound 0.2 µM) | relative viability (Erlotinib + Lapatinib; first compound 0.6325 µM) | relative viability (Erlotinib + Lapatinib; first compound 2 µM) | relative viability (Erlotinib + Pictilisib; first compound 0.02 µM) | relative viability (Erlotinib + Pictilisib; first compound 0.2 µM) | relative viability (Erlotinib + Pictilisib; first compound 0.6325 µM) | relative viability (Erlotinib + Pictilisib; first compound 2 µM) | relative viability (AT9283 + OSI-027; first compound 0.003 µM) | relative viability (AT9283 + OSI-027; first compound 0.03 µM) | relative viability (AT9283 + OSI-027; first compound 0.09487 µM) | relative viability (AT9283 + OSI-027; first compound 0.3 µM) | relative viability (AT9283 + Vorinostat; first compound 0.003 µM) | relative viability (AT9283 + Vorinostat; first compound 0.03 µM) | relative viability (AT9283 + Vorinostat; first compound 0.09487 µM) | relative viability (AT9283 + Vorinostat; first compound 0.3 µM) |
| --- | --- | --- | --- | --- | --- | --- | --- | --- | --- | --- | --- | --- | --- | --- | --- | --- | --- | --- | --- | --- |
| NCI-H2228 | 1.28 | 0.909 | 0.679 | 0.676 | 0.946 | 1.31 | 1.31 | 0.891 | 0.385 | 0.405 | 0.351 | 0.348 | 0.585 | 0.648 | 0.355 | 0.126 | 0.655 | 0.277 | 0.133 | 0.103 |
| LK-2 | 0.941 | 0.621 | 1.04 | 0.725 | 0.971 | 0.875 | 1.17 | 0.844 | 0.649 | 0.519 | 0.735 | 0.599 | 0.2 | 0.151 | 0.156 | 0.143 | 0.282 | 0.185 | 0.146 | 0.138 |
| NCI-H460 | 1.09 | 0.867 | 1.44 |  | 0.918 | 1.1 | 0.999 | 0.959 | 0.351 | 0.335 | 0.412 | 0.353 | 0.678 | 0.81 | 0.248 | 0.0423 | 0.856 | 0.639 | 0.158 | 0.0711 |
| UMC-11 | 0.337 | 0.281 | 0.336 | 0.3 | 1.04 | 0.952 | 1.11 | 0.919 | 0.795 | 0.7 | 1.04 | 0.816 | 0.559 | 0.17 | 0.152 | 0.167 | 0.359 | 0.109 | 0.117 | 0.124 |
| NCI-H1793 | 0.447 | 0.325 | 0.297 | 0.387 |  | 0.517 | 0.916 | 0.591 | 0.272 | 0.386 | 0.306 | 0.302 | 0.278 | 0.367 | 0.188 | 0.206 | 0.709 | 0.349 | 0.278 | 0.281 |
| NCI-H1437 |  | 1.15 |  | 0.976 | 0.788 | 0.812 | 1 | 0.726 | 0.431 | 0.408 | 0.482 | 0.347 | 0.933 | 0.848 | 0.669 | 0.206 | 0.833 | 0.469 | 0.312 | 0.295 |
| HCC-366 | 1.03 | 1.02 | 1.02 | 1.01 | 1.08 | 1 | 1.33 | 1.09 | 0.185 | 0.0789 | 0.12 | 0.137 | 0.834 | 0.845 | 0.048 | 0.0995 | 0.292 | 0.2 | 0.0353 | 0.0463 |
| NCI-H2087 | 1.14 | 0.913 | 0.899 | 0.904 | 0.996 | 1.15 | 1.16 | 0.921 | 0.842 | 0.844 | 0.932 |  | 0.637 | 0.392 | 0.14 | 0.134 | 1.01 | 0.158 | 0.179 | 0.126 |
| LU99A | 0.937 | 0.784 | 0.725 | 0.746 | 1.1 | 0.999 | 1.05 | 0.768 | 0.302 | 0.31 | 0.347 | 0.281 | 0.297 | 0.233 | 0.166 | 0.155 | 0.457 | 0.253 | 0.228 | 0.15 |
| NCI-H1993 | 0.848 | 0.725 | 0.786 | 0.722 | 0.961 | 0.795 | 0.698 | 0.827 | 0.807 | 0.745 | 0.946 | 0.901 | 0.545 | 0.528 | 0.487 | 0.486 | 0.806 | 0.435 | 0.375 | 0.363 |
| NCI-H2347 | 1.07 | 0.833 | 0.837 | 0.796 | 1.04 | 1.08 | 0.806 | 0.882 | 0.699 | 0.545 | 0.827 | 0.655 | 0.444 | 0.427 | 0.404 | 0.296 | 0.826 | 0.566 | 0.357 | 0.288 |
| NCI-H1734 | 0.852 | 0.795 | 0.907 | 0.75 | 1.15 | 1.02 | 1.3 | 1 | 0.494 | 0.474 | 0.542 |  | 0.634 | 0.331 | 0.237 | 0.201 | 0.757 | 0.305 | 0.259 | 0.237 |
| HCC-44 | 0.992 | 0.866 | 1.05 | 0.868 |  | 1.09 | 1.03 | 0.928 | 0.662 | 0.696 | 0.752 | 0.523 | 0.466 | 0.555 | 0.185 | 0.21 | 1.07 | 1.05 | 0.571 | 0.567 |
| LCLC-97TM1 | 0.39 |  | 0.464 | 0.391 | 1.36 |  | 0.929 | 0.846 | 0.171 |  | 0.226 | 0.211 | 0.539 | 0.288 | 0.0798 | 0.108 | 0.734 | 0.15 | 0.128 | 0.0905 |
| HOP-62 | 1.08 |  | 1.19 | 1.05 | 1.08 | 1.09 | 0.94 | 1.04 | 1.08 | 0.725 | 0.788 | 0.625 | 0.868 | 0.792 | 0.53 | 0.253 | 0.637 | 0.262 | 0.183 | 0.186 |
| NCI-H2405 | 0.915 | 0.902 | 1.01 | 0.78 | 1.1 | 1.11 | 1.14 | 0.976 | 0.36 | 0.452 | 0.589 | 0.469 | 0.685 | 0.654 | 0.533 | 0.262 | 0.959 | 0.576 | 0.3 | 0.24 |

Reference: the supplement of paper PMC10307832
